In patent publication US20230233591A1, “METHOD FOR TREATING […]” (priority 2020, published 2023):
Where a name gives a salt, the structure may show the parent alone.

How the values were obtained:
in vitro [1] = conditions: African green monkey
VACV [2] = experiment: microbe, parasite or virus in culture; assay type: cell-based; conditions: Orthopoxvirus vaccinia, Huh-7, 24 h
in vitro [3] = conditions: human
VACV [4] = experiment: microbe, parasite or virus in culture; assay type: cell-based; conditions: Orthopoxvirus vaccinia, Vero C1008, 24 h
CPXV [5] = experiment: microbe, parasite or virus in culture; assay type: cell-based
CPXV [6] = experiment: microbe, parasite or virus in culture; assay type: cell-based; conditions: Cowpox virus, Vero C1008, 24 h

SMILES	CC50 (in vitro [1]) [nM]	IC50 (VACV [2]) [nM]	CC50 (in vitro [3]) [nM]	IC50 (VACV [4]) [nM]	IC50 (CPXV [5]; Cowpox virus, Huh-7, 24 h) [nM]	IC50 (CPXV [6]) [nM]	IC50 (CPXV [5]; hydrochloride) [nM]
NC(=O)c1cn([C@@H]2O[C@H](CO)[C@@H](O)[C@H]2O)c2ncnc(N)c12 [Oya1, 4-amino-7-((2R,3R,4S,5R)-3,4-dihydroxy-5-(hydroxymethyl)tetrahydrofuran-2-yl)-7H-pyrrolo[2,3-d]pyrimidine-5-carboxamide]	> 600	50 ± 10	> 600	20 ± 10	220 ± 10	200 ± 10	
NC(=O)c1cn([C@@H]2O[C@H](CO)[C@@H](O)[C@H]2O)c2ncnc(N)c12 [Oya2, 4-amino-7-((2R,3R,4S,5R)-3,4-dihydroxy-5-(hydroxymethyl)tetrahydrofuran-2-yl)-7H-pyrrolo[2,3-d]pyrimidine-5-carboxamide hydrochloride]							240 ± 10
